The term IC50 denotes the concentration that gives 50% inhibition. Low values mean greater potency, high ones weaker potency.

Molecules are shown by their SMILES.

For 19 compounds, IC50 results are on record in ChEMBL document CHEMBL1128922, “Thiophenesulfonamides as endothelin receptor antagonists” (Bioorg Med Chem Lett, 1996).

Assay [1] has as its target T1, Endothelin receptor type B (Homo sapiens, UniProt P24530).
T1 sequence (P24530 whole entry): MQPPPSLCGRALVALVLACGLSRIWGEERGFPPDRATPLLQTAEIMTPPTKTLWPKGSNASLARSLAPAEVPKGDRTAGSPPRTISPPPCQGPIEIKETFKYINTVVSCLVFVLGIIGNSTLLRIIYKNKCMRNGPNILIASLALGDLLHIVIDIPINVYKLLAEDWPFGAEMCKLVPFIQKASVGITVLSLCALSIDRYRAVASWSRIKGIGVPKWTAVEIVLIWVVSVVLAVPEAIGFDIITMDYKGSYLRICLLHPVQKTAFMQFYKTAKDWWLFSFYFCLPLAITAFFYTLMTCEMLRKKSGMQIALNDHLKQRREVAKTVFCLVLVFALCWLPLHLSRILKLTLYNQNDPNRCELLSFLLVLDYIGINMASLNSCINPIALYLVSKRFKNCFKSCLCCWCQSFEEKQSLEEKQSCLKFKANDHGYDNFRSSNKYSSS
The assay can be described thus: Compound was tested for binding affinity against Endothelin B receptor.

Another assay addresses T2, Endothelin-1 receptor (Homo sapiens, UniProt P25101).
T2 sequence (P25101 whole entry): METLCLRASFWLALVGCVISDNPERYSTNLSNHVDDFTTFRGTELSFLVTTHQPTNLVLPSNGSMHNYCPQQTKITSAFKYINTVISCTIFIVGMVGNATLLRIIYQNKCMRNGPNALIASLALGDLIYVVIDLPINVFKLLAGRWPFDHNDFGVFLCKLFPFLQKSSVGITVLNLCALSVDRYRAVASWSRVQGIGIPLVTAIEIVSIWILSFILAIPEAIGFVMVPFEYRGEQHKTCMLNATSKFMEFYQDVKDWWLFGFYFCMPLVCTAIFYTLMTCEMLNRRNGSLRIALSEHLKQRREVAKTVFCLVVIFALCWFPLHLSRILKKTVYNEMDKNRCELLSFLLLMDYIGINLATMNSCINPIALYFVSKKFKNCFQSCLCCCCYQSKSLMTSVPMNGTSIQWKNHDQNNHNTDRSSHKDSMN
In words: Compound was tested for binding affinity against Endothelin A receptor.

In the case of `Cc1noc(NS(=O)(=O)c2sccc2Cc2ccccc2)c1Br`, the IC50 in assay [1] stood at 39.8 µM; at Endothelin-1 receptor, 2600 nM.

As for `CCCc1ccc(-c2ccsc2S(=O)(=O)Nc2onc(C)c2Br)cc1`, the IC50 in assay [1] stood at 8.16 µM.

For `COc1cccc(-c2ccsc2S(=O)(=O)Nc2onc(C)c2Br)c1`, the IC50 in assay [1] came to 56.3 µM; at Endothelin-1 receptor it was 1320 nM.

`Cc1noc(NS(=O)(=O)c2cccs2)c1Br`: the half-maximal inhibitory concentration (IC50) was > 100 µM in assay [1] and 1910 nM on Endothelin-1 receptor.

For the compound `Cc1noc(NS(=O)(=O)c2ccccc2-c2ccccc2)c1Br`, the IC50 in assay [1] is > 100 µM; on Endothelin-1 receptor, 16.2 nM.

Take `Cc1cc(CCC(C)C)ccc1-c1ccsc1S(=O)(=O)Nc1onc(C)c1Br`: the IC50 in assay [1] was found to be 2.45 µM; at Endothelin-1 receptor, 115 nM.

In the case of `Cc1noc(NS(=O)(=O)c2sccc2-c2ccc(CCC(C)C)cc2)c1Br`, the concentration for half-maximal inhibition (IC50) at Endothelin-1 receptor was 182 nM.

On to `Cc1noc(NS(=O)(=O)c2sccc2-c2ccc(CC(C)C)cc2)c1Br`, for which the IC50 in assay [1] worked out at 2.9 µM.

In the case of `Cc1noc(NS(=O)(=O)c2cc(-c3ccccc3)cs2)c1Br`, the IC50 in assay [1] amounted to 13.5 µM; at Endothelin-1 receptor, 3390 nM.

With `Cc1noc(NS(=O)(=O)c2sccc2Oc2ccccc2)c1Br`, the IC50 in assay [1] was 35.5 µM; at Endothelin-1 receptor, 1450 nM.

As to `Cc1noc(NS(=O)(=O)c2ccsc2-c2ccccc2)c1Br`, the IC50 in assay [1] was 74.1 µM; at Endothelin-1 receptor it was 603 nM.

As for `Cc1ccc(-c2ccsc2S(=O)(=O)Nc2onc(C)c2Br)cc1`, the values for the IC50 (in assay [1]; at Endothelin-1 receptor) were 95.5 µM and 315 nM, respectively.

`Cc1ccccc1-c1ccsc1S(=O)(=O)Nc1onc(C)c1Br`: the results for the IC50 (in assay [1]; at Endothelin-1 receptor) were > 100 µM and 306 nM, respectively.

For `Cc1noc(NS(=O)(=O)c2sccc2-c2ccccc2)c1Br`, the IC50 came out at 64.4 µM in assay [1] and 819 nM at Endothelin-1 receptor.

On to `CCCc1ccc(-c2ccsc2S(=O)(=O)Nc2onc(C)c2Br)c(C)c1`, for which the IC50 in assay [1] was found to be 2.91 µM; on Endothelin-1 receptor it was 42.9 nM.

`Cc1noc(NS(=O)(=O)c2ccsc2)c1Br`: the IC50 in assay [1] is > 100 µM; at Endothelin-1 receptor it was 2750 nM.

Take `Cc1cc(CC(C)C)ccc1-c1ccsc1S(=O)(=O)Nc1onc(C)c1Br`: the IC50 came out at 1.51 µM in assay [1] and 47.9 nM on Endothelin-1 receptor.

Take `Cc1noc(NS(=O)(=O)c2ccccc2)c1Br`: the values for the IC50 (in assay [1]; at Endothelin-1 receptor) were > 100 µM and 2510 nM, respectively.

As to `COc1ccc(-c2ccsc2S(=O)(=O)Nc2onc(C)c2Br)cc1`, the IC50 in assay [1] was 62.1 µM; on Endothelin-1 receptor, 334 nM.
